Data from patent publication US9776127B2, “Reversible light driven gas absorbent solution and process” (Commonwealth Scientific and Industrial Research Organisation, priority 2013, dated 2017).

Assay: pKa of photoactive compound in ground and excited state
Assay type: physicochemical
From the text: The operating range of the photoactive compound may be related to the difference in pKa between the excited and ground states of the photoactive molecule. The operating range may be ascertained by determining the pKa of the photoactive compound in its ground state (e.g. the base or relatively weak acid form) and the pKa of the compound in its excited state (e.g. the relatively strong acidic form). The difference in pKa between these two forms therefore defines the operating range of the photoactive compound. […] The requirement to select an amine for use with a photochromic molecule that results in an absorbent pH within the working range of the photochromic molecule can be illustrated by calculation. […] The pH of a mixture containing 0.5 M amine and 0.25 M MEH (ground state) as a function of absorbed CO2 and 0.5 M amine and 0.25 spiropyran (excited state) as function of absorbed CO2 was calculated using the published method Puxty, […]. Int. […]. Gas Control, 17 (2013), 215-224. The difference in pH of the absorbent at each concentration of absorbed CO2 is indicative of the ability of excitation to remove CO2 from the absorbent. […] Chem. Thermodynamics, 51 (2012), 97-102 and Fernandes, D., et al., J. Chem. Thermodynamics, 54 (2012), 183-191.

pKa (excited state)	pKa (ground state)	pKa (aqueous solution, ground state, aqueous solution at room temperature)	SMILES
1.9	9.7	–	O=[N+]([O-])CCc1c(O)ccc2ccccc12 [1-(2-nitroethyl)-2-naphthol]
–	–	7.8	CC1(C)C(/C=C/c2ccccc2O)=[N+](CCCS(=O)(=O)[O-])c2ccccc21 [MEH]
